# Values of other authors in patent publication US8324203B2, “Azadecalin glucocorticoid receptor modulators” (Corcept Therapeutics, Inc., priority 2004, dated 2012).
# Columns and labels:
# [1] = system: patients with Cushing's syndrome
# [2] = target: GR (Homo sapiens, UniProt P04150)
# Sequence of GR (P04150 whole entry): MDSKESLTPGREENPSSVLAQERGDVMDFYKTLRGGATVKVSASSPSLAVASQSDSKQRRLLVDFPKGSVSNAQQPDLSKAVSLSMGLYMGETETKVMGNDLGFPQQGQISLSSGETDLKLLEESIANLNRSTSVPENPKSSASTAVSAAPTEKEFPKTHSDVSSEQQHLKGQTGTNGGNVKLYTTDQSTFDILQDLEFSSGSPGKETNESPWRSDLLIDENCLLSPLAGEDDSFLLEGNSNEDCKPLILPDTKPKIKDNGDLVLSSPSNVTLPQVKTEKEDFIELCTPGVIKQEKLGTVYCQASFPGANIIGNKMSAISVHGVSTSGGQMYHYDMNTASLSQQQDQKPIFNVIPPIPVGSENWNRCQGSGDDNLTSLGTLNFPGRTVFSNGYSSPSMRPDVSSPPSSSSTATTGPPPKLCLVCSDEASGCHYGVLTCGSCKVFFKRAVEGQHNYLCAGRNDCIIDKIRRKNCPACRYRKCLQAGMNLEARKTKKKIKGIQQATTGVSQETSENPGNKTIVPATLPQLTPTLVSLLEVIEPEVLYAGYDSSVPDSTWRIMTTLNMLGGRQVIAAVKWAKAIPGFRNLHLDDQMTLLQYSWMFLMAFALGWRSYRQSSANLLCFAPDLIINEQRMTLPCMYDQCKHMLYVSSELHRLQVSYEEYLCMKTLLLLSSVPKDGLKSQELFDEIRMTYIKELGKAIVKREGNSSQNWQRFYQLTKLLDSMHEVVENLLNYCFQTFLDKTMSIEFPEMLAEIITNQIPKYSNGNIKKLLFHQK
smiles,measurement,setting,value
CC#C[C@]1(O)CC[C@H]2[C@@H]3CCC4=CC(=O)CCC4=C3[C@@H](c3ccc(N(C)C)cc3)C[C@@]21C [mifepristone],effect on acute psychosis,"[1]; 400 to 800 mg per day, severe Cushing Syndrome due to adrenal cancers and ectopic secretion of ACTH from lung cancer",useful in rapidly reversing acute psychosis
same,"effect on patients' conditions, including psychiatric status",[1]; Cushing's syndrome patients,improved the patients' conditions
same,anti-glucocorticoid activity in humans,[2],effective anti-glucocorticoid agent in humans
